Assay results from patent US10485885B2, “Compositions and methods for delivery of agents” (ModernaTX, Inc., priority 2015, dated 2019).

Test system: circulating B cells and monocytes
Experiment: B cell, B1a cell and monocyte frequencies and activation in non-human primate PBMCs
Assay type: in vivo, cynomolgus monkeys
Experimental: The percentage of monocyte activation was also measured at pre-bleed, day 1, day 22, day 43, and day 44 of the study.
FIGS. 84A and 84B show the EPO expression after the first injection and after the fifth injection. In particular, the concentration of EPO (ng/mL) was measured at 2 hours, 6 hours, 12 hours, 24 hours, and 48 hours following the first injection and the fifth injection. FIGS. 85A-85E show the EPO expression for each of the co-medications on day 1 and day 29 of the study. In particular, the concentration of EPO (ng/mL) was measured on day 1 and day 29 at 2 hours, 6 hours, 12 hours, 24 hours, and 48 hours for each co-medication group. Immune cell populations were also measured. Specifically, the percentage of B cells (FIG. 86A), B1a cells (FIG. 86B), and monocytes (FIG. 86C) in PBMCs was measured for each co-medication group at day-7, 24 hours post first injection, and 24 hours post fifth injection. B cell activation is reflected in FIG. 87. The percentage of activated B cells in circulating B cells was measured for each co-medication group at day-7, 24 hours post first injection, and 24 hours post fifth injection.
Monocyte activation is reflected in FIG. 88. The percentage of activated monocytes/macrophages in circulating PBMCs was measured for each co-medication group at day-7, 24 hours post first injection, and 24 hours post fifth injection. […] An increase in the percentage of activated monocytes/macrophages post injection was only observed in the fingolimod co-medication group.

[1] = co-medication with hEPO mRNA MC3-LNP, 24 hours post first injection

In the case of `COc1cc(Nc2ncc(F)c(Nc3ccc4c(n3)N(COP(=O)(O)O)C(=O)C(C)(C)O4)n2)cc(OC)c1OC` [fostamatinib], the “Percentage of activated B cells in circulating B cells” value (“Percentage of activated B cells” for short) [1] is reported as “normal B cell activation similar to that of the control group”.
With `CC[C@H](Nc1ncnc2[nH]cnc12)c1nc2cccc(F)c2c(=O)n1-c1ccccc1` [idelalisib] the “B cell frequencies in PBMCs” value (cynomolgus monkey, in vivo) was “slightly reduced” and the “Percentage of activated B cells” value (cynomolgus monkey, in vivo) was “B cell activation was not observed”.
`CCCCCCCCc1ccc(CCC(N)(CO)CO)cc1` [fingolimod] was tested, and the “Frequencies of monocytes in PBMCs” value (co-medication) was “significant decrease”, the “Percentage of activated monocytes/macrophages post injection” value (co-medication) was “increase” and the “Percentage of activated B cells” value [1] was “normal B cell activation similar to that of the control group”.
